Test results reported in ChEMBL document CHEMBL1138141, “Pyridazines part 41: synthesis, antiplatelet activity and SAR of 2,4,6-substituted 5-(3-oxo-3-phenylprop-1-en-1-yl)- or 5-(3-phenylprop-2-enoyl)pyridazin-3(2H)-ones” (Bioorg Med Chem Lett, 2006).
Calls of active or inactive are those of the source. The rule behind the calls is not given here.

What was measured:
[1] = target: Prostaglandin G/H synthase 1 (Homo sapiens) (UniProt P23219); test: Inhibition of thrombin-induced platelet aggregation below 100 uM; type: functional
[2] = target: Prostaglandin G/H synthase 1 (Homo sapiens) (UniProt P23219); test: Inhibition of thrombin-induced platelet aggregation above 100 uM; type: functional

Prostaglandin G/H synthase 1 (Homo sapiens), sequence (P23219 whole entry): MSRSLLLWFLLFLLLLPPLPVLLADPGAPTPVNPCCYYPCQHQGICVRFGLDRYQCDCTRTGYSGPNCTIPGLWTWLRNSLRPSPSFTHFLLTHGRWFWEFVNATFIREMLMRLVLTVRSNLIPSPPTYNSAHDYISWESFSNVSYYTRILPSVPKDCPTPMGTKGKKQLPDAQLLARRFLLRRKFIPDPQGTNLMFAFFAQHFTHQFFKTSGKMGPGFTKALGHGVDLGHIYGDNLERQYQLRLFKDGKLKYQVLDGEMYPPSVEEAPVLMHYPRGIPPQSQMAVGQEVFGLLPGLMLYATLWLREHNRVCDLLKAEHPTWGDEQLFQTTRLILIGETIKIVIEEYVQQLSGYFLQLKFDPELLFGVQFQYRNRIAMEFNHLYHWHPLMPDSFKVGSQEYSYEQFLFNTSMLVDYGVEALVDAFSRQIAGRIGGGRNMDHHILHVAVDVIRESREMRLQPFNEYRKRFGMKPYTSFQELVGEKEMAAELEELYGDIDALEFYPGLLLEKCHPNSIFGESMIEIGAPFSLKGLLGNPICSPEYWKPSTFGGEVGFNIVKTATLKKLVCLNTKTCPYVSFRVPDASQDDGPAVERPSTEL

Activity [1]: inactive
Activity [2]: Active
Compound: O=C(/C=C/c1ccccc1)c1cnn(Cc2ccccc2)c(=O)c1
